Measurements published in PubChem BioAssay (NCI).
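Compound exposure: 48 hours, 5 concentrations, 96-well plates. Here, GI50 denotes the concentration required for 50% inhibition of growth. TGI marks complete inhibition of growth.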

Legend:
Assay in all cases: inhibition of tumour cell growth, NCI panel, 48 h
[1] = tested on: UO-31 renal
[2] = tested on: CAKI-1 renal
[3] = tested on: SNB-19 CNS
[4] = tested on: SN12C renal
[5] = tested on: SF-295 CNS
[6] = tested on: COLO 205 colon
[7] = tested on: NCI-H522 lung
[8] = tested on: DU-145 prostate
[9] = tested on: M14 melanoma
[10] = tested on: HS 578T breast
[11] = tested on: A549 NSCLC
[12] = tested on: OVCAR-5 ovarian
[13] = tested on: SK-MEL-5 melanoma
[14] = tested on: A498 renal
[15] = tested on: MDA-MB-231 breast
[16] = tested on: OVCAR-4 ovarian
[17] = tested on: PC-3 prostate
[18] = tested on: SF-268 CNS
[19] = tested on: NCI-H460 lung
[20] = tested on: HL-60(TB) leukemia
[21] = tested on: RPMI-8226 leukemia
[22] = tested on: OVCAR-3 ovarian
[23] = tested on: MOLT-4 leukemia
[24] = tested on: T-47D breast
[25] = tested on: MCF7 breast
[26] = tested on: SK-MEL-2 melanoma
[27] = tested on: CCRF-CEM leukemia
[28] = tested on: K-562 leukemia
[29] = tested on: IGROV1 ovarian
[30] = tested on: MDA-MB-435
[31] = tested on: SW-620 colon
[32] = tested on: 786-0 renal
[33] = tested on: HCC-2998 colon
[34] = tested on: MALME-3M melanoma
[35] = tested on: HCT-116 colon
[36] = tested on: U251 CNS
[37] = tested on: EKVX NSCLC
[38] = tested on: SNB-75 CNS
[39] = tested on: KM12 colon
[40] = tested on: SK-OV-3 ovarian
[41] = tested on: SK-MEL-28 melanoma
[42] = tested on: TK-10 renal
[43] = tested on: RXF 393 renal
[44] = tested on: NCI-H226 lung
[45] = tested on: LOX IMVI melanoma
[46] = tested on: HOP-92 NSCLC
[47] = tested on: UACC-62 melanoma
[48] = tested on: ACHN renal
[49] = tested on: SF-539 CNS
[50] = tested on: HT29 colon
[51] = tested on: HOP-62 NSCLC
[52] = tested on: BT-549 breast
[53] = tested on: OVCAR-8 ovarian
[54] = tested on: SR leukemia
[55] = tested on: UACC-257 melanoma
[56] = tested on: NCI/ADR-RES ovarian
[57] = tested on: HCT-15 colon
[58] = tested on: NCI-H23 lung

Work on NCCCCCn1c2c(c3ccccc3c1=O)C(=O)c1ccccc1-2 yielded a GI50 [1] of 238 nM, a TGI [1] of 1530 nM and a GI50 [2] of 749 nM. For the same molecule, the TGI [2] was 14000 nM, the GI50 [3] was 465 nM and the TGI [3] was 7660 nM. It also gave a GI50 [4] of 305 nM, a TGI [4] of 3970 nM and a GI50 [5] of 527 nM. For the same molecule, the TGI [5] was 6380 nM, the GI50 [6] was 639 nM and the TGI [6] was 3270 nM. It also gave a GI50 [7] of 215 nM, a TGI [7] of 1690 nM and a GI50 [8] of 266 nM. For the same molecule, the GI50 [9] was 1410 nM, the TGI [9] was 3220 nM and the GI50 [10] was 1770 nM. It also gave a TGI [10] of 12900 nM, a GI50 [11] of 452 nM and a GI50 [12] of 999 nM. For the same molecule, the TGI [12] was 3840 nM, the GI50 [13] was 617 nM and the TGI [13] was 2050 nM. For the same molecule, the GI50 [14] was 1430 nM, the TGI [14] was 4070 nM and the GI50 [15] was 1760 nM. The TGI [15] was 6090 nM, the GI50 [16] was 1540 nM and the TGI [16] was 5580 nM. It also gave a GI50 [17] of 1230 nM, a TGI [17] of 5370 nM and a GI50 [18] of 321 nM. It also gave a TGI [18] of 3060 nM, a GI50 [19] of 53.7 nM and a TGI [19] of 1020 nM. It also gave a GI50 [20] of 159 nM, a TGI [20] of 744 nM and a GI50 [21] of 222 nM. The TGI [21] was 1510 nM, the GI50 [22] was 1100 nM and the TGI [22] was 6740 nM. For the same molecule, the GI50 [23] was 28.5 nM, the TGI [23] was 1740 nM and the GI50 [24] was 451 nM. For the same molecule, the TGI [24] was 2140 nM, the GI50 [25] was 69.6 nM and the TGI [25] was 3490 nM. It also gave a GI50 [26] of 1410 nM, a TGI [26] of 2960 nM and a GI50 [27] of 106 nM. It also gave a TGI [27] of 1160 nM, a GI50 [28] of 195 nM and a TGI [28] of 2470 nM. For the same molecule, the GI50 [29] was 241 nM, the TGI [29] was 2750 nM and the GI50 [30] was 1360 nM. For the same molecule, the TGI [30] was 3620 nM, the GI50 [31] was 166 nM and the TGI [31] was 4090 nM. For the same molecule, the GI50 [32] was 274 nM, the TGI [32] was 2010 nM and the GI50 [33] was 529 nM. For the same molecule, the TGI [33] was 2630 nM, the GI50 [34] was 1130 nM and the TGI [34] was 3170 nM. It also gave a GI50 [35] of 151 nM, a TGI [35] of 3910 nM and a GI50 [36] of 232 nM. It also gave a TGI [36] of 4110 nM, a GI50 [37] of 4080 nM and a TGI [37] of 17100 nM. For the same molecule, the GI50 [38] was 1200 nM, the TGI [38] was 6920 nM and the GI50 [39] was 284 nM. For the same molecule, the TGI [39] was 2480 nM, the GI50 [40] was 531 nM and the TGI [40] was 2160 nM. It also gave a GI50 [41] of 1460 nM, a TGI [41] of 3160 nM and a GI50 [42] of 714 nM. The TGI [42] was 7080 nM, the GI50 [43] was 2830 nM and the TGI [43] was greater than 26300 nM. It also gave a GI50 [44] of 479 nM, a TGI [44] of 2160 nM and a GI50 [45] of 221 nM. For the same molecule, the TGI [45] was 1760 nM, the GI50 [46] was 435 nM and the TGI [46] was 3720 nM. It also gave a GI50 [47] of 1420 nM, a TGI [47] of 3370 nM and a GI50 [48] of 190 nM. It also gave a TGI [48] of 909 nM, a GI50 [49] of 864 nM and a TGI [49] of 2480 nM. The GI50 [50] was 246 nM, the TGI [50] was 4660 nM and the GI50 [51] was 221 nM. The TGI [51] was 2190 nM, the GI50 [52] was 1570 nM and the TGI [52] was 4600 nM. It also gave a GI50 [53] of 497 nM, a TGI [53] of 10500 nM and a GI50 [54] of 35 nM. For the same molecule, the TGI [54] was 726 nM, the GI50 [55] was 2000 nM and the TGI [55] was 4700 nM. It also gave a GI50 [56] of 1410 nM, a TGI [56] of 4860 nM and a GI50 [57] of 163 nM. For the same molecule, the TGI [57] was 2340 nM, the GI50 [58] was 314 nM and the TGI [58] was 1470 nM.
